Assay results: patent publication US6187906A, “Methods to improve neural outcome” (Aukland Uniservices Limited, priority 1998, dated 2001)

Legend:
[1] = test system: hypoxic-ischemic injury to one cerebral hemisphere; assay: Hypoxic-ischemic injury in adult rats, IGF-1 vs MK801 (Experiment 1); assay type: in vivo, Wistar rats; conditions: 50 μg IGF-1 intraventricular and/or 1 mg MK801, 2 hours after hypoxia; histology at 120 hours; controls 65%
Description: Adult Wistar rats (68 280-320 g) were prepared under 3% halothane/O2 anaesthesia. The right side carotid artery was ligated. A guide cannula was placed on the dura 8.2 mm anterior from bregma and 1.4 mm from midline on the right. The rats were allowed to recover from anaesthesia for 1 hour and were then placed in an incubator with humidity 85±5% and temperature 34±0.5° C. for 1 hour before hypoxia. Oxygen concentration was reduced and maintained at 6±0.2 O2 % hypoxia for 10 minutes. […] The intraventricular injections of 50 μg IGF-1 or vehicle alone were made into the right lateral ventricle at 1 μl/minute under 1.5%-2% halothane anaesthetic. Rats in each treatment group were infused simultaneously. The rats had free access to food during experiment and were euthanized at 120 hours after hypoxia with overdose of sodium pentobarbitol. Briefly, the brain was perfused in-situ with FAM (Formaldehyde, Acetic Acid, Methanol 1:1:8) then paraffin embedded. The sections were stained with Thionin and Acid Fuchsin. The presence of cortical infarction, defined as a region of tissue death or parenchymal pan-necrosis due to death of glia as well as neurons, was determined via light microscopy by an assessor who was blinded to the experimental groupings.

ischemic brain injury = assay: Ischemic brain injury in fetal sheep, postischemic seizures and neuronal loss (Experiment 2); assay type: in vivo
Description: The objective of this study was to compare the effects of treatment either with IGF-1 (see FIG. 2) and previously published work with the NMDA antagonist […] after an ischemic brain injury on postischemic seizures and neuronal losses in fetal sheep. (Tan et al Ann Neurol 32:677-682 (1992)).
The methods were those of an earlier study (Tan et al Ann Neurol 32:677-682 (1992)). Briefly, late gestation fetal sheep were chronically instrumented to record EEG, nuchal activity and blood pressure, and were then returned to the uterus. Cortical EEG activity nuchal activity and blood pressure were recorded throughout he experiment and the fetal brain subjected to 30 minutes of ischemia. Two hours later they were treated by an infusion of either 1 μg IGF-1 (n=6) or vehicle (artificial CSF) (n=6) into the lateral ventricle. Five days later the brains were fixed and assessed for neuronal loss as described previously (Tan et al Ann Neurol 32:677-682 (1992)).
In all cases the vehicle is the left-hand column and the effects of 1 μg of IGF-1 is on the right.

Row | Compound | incidence of cortical infarction [1] [%] | neuronal rescue (neuronal loss scores) (ischemic brain injury; 1 μg IGF-1 into lateral ventricle 2 hours after 30 minutes of ischemia, assessed five days later) | postischemic seizure activity (ischemic brain injury; 1 μg IGF-1 into lateral ventricle 2 hours after ischemia)
1 | C[C@]12N[C@H](Cc3ccccc31)c1ccccc12 [MK801, reference compound] | 50 | – | –
2 | insulin-like growth factor 1 [IGF-1] | 33 | rescued neurons | did not suppress
